Source: patent US9724347B2, “1-pyrazolyl-3-(4-((2-anilinopyrimidin-4-yl)oxy)napththalen-1-yl) ureas as P38 MAP knase inhibitors” (Respivert Ltd., priority 2011, dated 2017)

Key:
[1] = system: HRV IL-8 release (BEAS2B); assay: Rhinovirus-induced IL-8 release in BEAS2B cells; assay type: cell-based, human; conditions: at 0.04 μg/mL
Protocol: Human rhinovirus RV16 was obtained from the American Type Culture Collection (Manassas, Va.). Viral stocks were generated by infecting Hela cells with HRV until 80% of the cells were cytopathic.
BEAS2B cells were infected with HRV at an MOI of 5 and incubated for 2 hr at 33° C. with gentle shaking for to promote absorption. The cells were then washed with PBS, fresh media added and the cells were incubated for a further 72 hr. The supernatant was collected for assay of IL-8 concentrations using a Duoset ELISA development kit (R&D systems, Minneapolis, Minn.).
The level of cell surface ICAM-1 expression was determined by cell-based ELISA. At 72 hr after infection, cells were fixed with 4% formaldehyde in PBS. After quenching endogenous peroxidase by adding 0.1% sodium azide and 1% hydrogen peroxide, wells were washed with wash-buffer (0.05% Tween in PBS: PBS-Tween). […] The ICAM-1 signal was detected by adding substrate and reading at 450 nm with a reference wavelength of 655 nm using a spectrophotometer. The wells were then washed with PBS-Tween and total cell numbers in each well were determined by reading absorbance at 595 nm after Crystal Violet staining and elution by 1% SDS solution. The measured OD450-655 readings were corrected for cell number by dividing with the OD595 reading in each well. […]

d-U937 cells = assay: Cell viability: MTT assay; assay type: cell-based, human; conditions: 1 μg/mL
Method in brief: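 Differentiated U937 cells exposed to compound at 1 or 10 μg/mL final, either 4 h in 5% FCS RPMI1640 or 24 h in 10% FCS RPMI1640. After medium replacement, MTT added 1 h, formazan dissolved in DMSO, A550 read. % viability loss vs 0.5% DMSO vehicle; apparent viability gain shown as negative %.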

[2] = system: TNFα release in THP-1 cells; assay: LPS-induced TNFα release in THP-1 cells; assay type: cell-based, human; conditions: THP1 cells
Protocol: THP-1 cells, a human monocytic cell line, were stimulated with 3 μg/mL of LPS (from E. Coli; 0111:B4, Sigma) for 4 hr and the supernatant collected for determination of the TNFα concentration by sandwich ELISA (Duo-set, R&D systems). The inhibition of TNFα production was calculated at each concentration by comparison with vehicle control.

[3] = system: TNFα release in d-U937 cells; assay: LPS-induced TNFα release in d-U937 cells; assay type: cell-based, human; conditions: dU937 cells; relative to 10 μg/mL BIRB796; read-out: LPS Induced Release TNFα REC50 (dU937)
Protocol: (§1) U937 cells, a human monocytic cell line, were differentiated into macrophage-type cells by incubation with PMA (100 ng/mL) for 48 to 72 hr. Cells were pre-incubated with final concentrations of test compound for 2 hr and were then stimulated with LPS (0.1 μg/mL; from E. Coli: 0111:B4, Sigma) for 4 hr. The supernatant was collected for determination of TNFα and IL-8 concentrations by sandwich ELISA (Duo-set, R&D systems). […] The relative 50% effective concentration (REC50) was determined from the resultant concentration-response curve. The inhibition of IL-8 production was calculated at each concentration of test compound by comparison with vehicle control.

HRV16 = HRV16 induced CPE in MRC5 cells; assay type: cell-based, human rhinovirus; conditions: at 0.04 μg/mL
Protocol: The supernatants were aspirated, and then fresh media added followed by incubation for 4 days. Where appropriate, cells were pre-incubated with compound or DMSO for 2 hr, and the compounds and DMSO added again after washout of the virus.
The percentage inhibition for each well was calculated. The IC50 value was calculated from the concentration-response curve generated by the serial dilutions of the test compounds.

[4] = system: ICAM-1 expression in BEAS2B cells; assay: Poly I:C-induced ICAM-1 expression in BEAS2B cells; assay type: cell-based, human; conditions: read-out: PolyIC/ICAM1 IC50 (BEAS2B)
Method in brief: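 BEAS2B human bronchial epithelial cells pre-incubated 2 h with compound, then transfected with 1 μg/mL poly I:C plus Oligofectamine. After 18 h, surface ICAM-1 measured by cell-based ELISA (OD450–655), normalised to crystal violet cell count (OD595). Inhibition calculated against vehicle control.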

[5] = system: IL-8 release in d-U937 cells; assay: LPS-induced IL-8 release in d-U937 cells; assay type: cell-based, human; conditions: dU937 cells
Protocol: as §1, with “Cells were pre-incubated with final concentrations of test compound for 2 hr and were then stimulated with LPS (0.1 μg/mL; from E. Coli: 0111:B4, Sigma) for 4 hr.” left out

`Cc1ccc(-n2nc(C(C)(C)C)cc2NC(=O)Nc2ccc(Oc3ccnc(Nc4ccccc4Cl)n3)c3ccccc23)cc1` [Example 19, 1-(3-(tert-butyl)-1-(p-tolyl)-1H-pyrazol-5-yl)-3-(4-((2-((2-chlorophenyl)amino)pyrimidin-4-yl)oxy)naphthalen-1-yl)urea] was tested, and the “HRV IL-8 (BEAS2B) % inhibition” value [1] was 100%, the “MTT Assay Cell viability at time point in d-U937 Cells” value (d-U937 cells; 4 h) was “−ve (−ve and +ve indicate the value is below and above respectively, the no significant effect threshold defined as 30% inhibition at 1 μg/mL at the time point indicated)” and the “MTT Assay Cell viability at time point in d-U937 Cells” value (d-U937 cells; 24 h) was “−ve (−ve and +ve indicate the value is below and above respectively, the no significant effect threshold defined as 30% inhibition at 1 μg/mL at the time point indicated)”. The IC50 [2] was 192 nM, the EC50 [3] was 13 nM and the “HRV CPE (MRC5) % inhibition” value (HRV16) was “NE (NE: no effect, ≦0% at 0.04 μg/mL)”. For the same compound, the IC50 [4] was 43 nM and the IC50 [5] was 14 nM.
